Molecules are shown by their SMILES.

In this test the test system is MOLM-13 cells. In words: MOLM-13 Cell Proliferation Assay (indicator of DHODH inhibition). Particulars: Homo sapiens, 72 Hours of culture, CellTiter-Glo, no uridine. Type of test: cell-based. As for the experimental part:
The following assay was conducted to measure proliferation of MOLM-13 cells in the presence of each compound studied. This assay was included as an indicator of DHODH inhibition, as growth of MOLM-13 cells is known to depend on synthesis of pyrimidines using the de novo pathway, which can be blocked by inhibition of DHODH. • 1. MOLM-13 cells were cultured in RPMI 1640 medium+10% Fetal Bovine Serum (FBS). Only low passage cells (<20) were used for the compound tests • 2. On day 1, Log-phase growing Molm-13 Cells were counted and diluted to 10^5 cells/mL in RPMI 1640 medium+10% FBS • 3. 100 μL of diluted MOLM-13 cells in 96 well white plates were seeded, for a final density of 10^4 cells/well. • 4. 0.5 μL of pre-diluted 200× compounds or DMSO control was added to each well. The final DMSO concentration was 0.5%. • 5. After 72 Hours of culture at 37° C., 5% CO2, the plates were taken out and cooled to RT, then 50 μL CellTiter-Glo® (Promega) was added, and the composition was mixed at RT for 10 minutes. • 6. The plates were then read by ViewLux (Speed-fast, Gain-High, Bining-1X, 5 seconds).
For orientation: Cellular ATP, detected with luciferase, serves as a proxy for viable cell number.
For the molecule `CN(C)c1ccc(C2c3[nH]c4cc(F)c(Cl)cc4c3CCN2c2ncc(F)cn2)cn1` (stereo not shown) [Compound 34, 5-[6-chloro-7-fluoro-2-(5-fluoropyrimidin-2-yl)-2,3,4,9-tetrahydro-1H-pyrido[3,4-b]indol-1-yl]-N,N-dimethylpyridin-2-amine], it took 32.3 nM to reach half-maximal inhibition (IC50).
Consider `Fc1cnc(N2CCc3c([nH]c4cc(F)c(Cl)cc34)C2c2ccc(C(F)(F)F)cc2)nc1` (stereo not shown) [Compound 35, 6-chloro-7-fluoro-2-(5-fluoropyrimidin-2-yl)-1-[4-(trifluoromethyl)phenyl]-2,3,4,9-tetrahydro-1H-pyrido[3,4-b]indole], for which the half-maximal inhibitory concentration (IC50) (usually the concentration that gives 50% inhibition) amounted to 43.2 nM.
The molecule `Fc1cnc(N2CCc3c([nH]c4cc(F)c(Cl)cc34)C2c2cccc(F)c2F)nc1` (stereo not shown) [Compound 36, 6-chloro-1-(2,3-difluorophenyl)-7-fluoro-2-(5-fluoropyrimidin-2-yl)-2,3,4,9-tetrahydro-1H-pyrido[3,4-b]indole] gave a concentration for half-maximal inhibition (IC50) of 23.4 nM.
Then `Fc1cnc(N2CCc3c([nH]c4cc(F)c(Cl)cc34)C2c2ccc(F)c(F)c2)nc1` (stereo not shown) [Compound 37, 6-chloro-1-(3,4-difluorophenyl)-7-fluoro-2-(5-fluoropyrimidin-2-yl)-2,3,4,9-tetrahydro-1H-pyrido[3,4-b]indole], with 89.6 nM; and `Cc1ccnc(N2CCc3c([nH]c4cc(F)c(Cl)cc34)C2c2ccc(Cl)cc2)n1` (stereo not shown) [Compound 38, 6-chloro-1-(4-chlorophenyl)-7-fluoro-2-(4-methylpyrimidin-2-yl)-2,3,4,9-tetrahydro-1H-pyrido[3,4-b]indole], with 24.3 nM; and `Fc1cc2[nH]c3c(c2cc1Cl)CCN(c1nccc(Cl)n1)C3c1ccc(Cl)cc1` (stereo not shown) [Compound 39, 6-chloro-1-(4-chlorophenyl)-2-(4-chloropyrimidin-2-yl)-7-fluoro-2,3,4,9-tetrahydro-1H-pyrido[3,4-b]indole], with 10.3 nM.
`N#Cc1ccnc(N2CCc3c([nH]c4cc(F)c(Cl)cc34)C2c2ccc(Cl)cc2)n1` (stereo not shown) [Compound 40, 2-[6-chloro-1-(4-chlorophenyl)-7-fluoro-1,3,4,9-tetrahydro-2H-pyrido[3,4-b]indol-2-yl]pyrimidine-4-carbonitrile]: the IC50 was found to be 22.4 nM.
On to `Cc1ccc(C2c3[nH]c4cc(F)c(Cl)cc4c3CCN2c2ncc(Cl)cn2)cc1` (stereo not shown) [Compound 41, 6-chloro-2-(5-chloropyrimidin-2-yl)-7-fluoro-1-(4-methylphenyl)-2,3,4,9-tetrahydro-1H-pyrido[3,4-b]indole], for which the IC50 came out at 19.6 nM.
The molecule `Cc1ccc(C2c3[nH]c4cc(F)c(Cl)cc4c3CCN2c2nccc(C)n2)cc1` (stereo not shown) [Compound 42, 6-chloro-7-fluoro-1-(4-methylphenyl)-2-(4-methylpyrimidin-2-yl)-2,3,4,9-tetrahydro-1H-pyrido[3,4-b]indole] displayed an IC50 of 20.3 nM.
Take `Cc1ccc(C2c3[nH]c4cc(F)c(Cl)cc4c3CCN2c2nccc(Cl)n2)cc1` (stereo not shown) [Compound 43, 6-chloro-2-(4-chloropyrimidin-2-yl)-7-fluoro-1-(4-methylphenyl)-2,3,4,9-tetrahydro-1H-pyrido[3,4-b]indole]: the IC50 was 6 nM.
Take `Cc1ccc(C2c3[nH]c4cc(F)c(Cl)cc4c3CCN2c2nccc(C#N)n2)cc1` (stereo not shown) [Compound 44, 2-[6-chloro-7-fluoro-1-(4-methylphenyl)-1,3,4,9-tetrahydro-2H-pyrido[3,4-b]indol-2-yl]pyrimidine-4-carbonitrile]: inhibition was half-maximal at 14.7 nM (IC50).
Consider `Fc1cc2[nH]c3c(c2cc1Cl)CCN(c1ncccn1)C3c1ccc(C2CC2)cc1` (stereo not shown) [Compound 45, 6-chloro-1-(4-cyclopropylphenyl)-7-fluoro-2-(pyrimidin-2-yl)-2,3,4,9-tetrahydro-1H-pyrido[3,4-b]indole], for which 32.2 nM corresponded to half-maximal inhibition (IC50).
In the case of `Cc1cc(Cl)nc(N2CCc3c([nH]c4cc(F)c(Cl)cc34)C2c2ccc(F)cc2)n1` (stereo not shown) [Compound 46, 6-chloro-2-(4-chloro-6-methylpyrimidin-2-yl)-7-fluoro-1-(4-fluorophenyl)-2,3,4,9-tetrahydro-1H-pyrido[3,4-b]indole], the IC50 stood at 6.5 nM.
